19 compounds from patent US20250154138A1, “Small Molecule IL-17A Modulators” (BeiGene, Ltd., priority 2022, published 2025) can be followed below.

Where two headings read alike, the source gives them in different places.

Experiment [1] concerns IL-17-induced GROα secretion from HT-29 cells. The experiment in a line: GROα release assay in human colorectal adenocarcinoma epithelial cell (HT-29, ELISA). The format is cell-based. The settings on record: Homo sapiens, 10 ng/mL IL-17A, highest concentration 10 μM, read-out: Cellular assay HT29 cell/CXCL1 IC50. An outline of the steps:
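IC50 values come from four-parameter fits of GROα levels, quantified by ELISA (450 nm, standard curve) in supernatants. Compounds, 4-fold serially diluted from 10 μM, were mixed 15 min with IL-17A (10 ng/mL final) before 48 h incubation with HT-29 cells at 37°C.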
On the technique in general: In an ELISA, binding on a coated surface is turned into a signal by an enzyme label.

Experiment [2] has as its target human IL-17A / human IL-17RA (Homo sapiens (Human), UniProt Q16552). Kind of experiment: Human IL-17A biochemical assay (HTRF, blocking of IL-17A binding to IL-17RA). The settings on record: 0.4 nM IL-17A, 0.3 nM IL-17RA, max compound concentration 10 uM. Summed up: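 HTRF readout (ex337, em620/665 nm ratio) after anti-6His Tb cryptate and anti-human IgG-XL665 detection, 1 h RT. Beforehand, 0.4 nM IL-17A sat with compound 3 h RT, then 0.3 nM IL-17RA 1 h. IC50 by four-parameter logistic fit.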

human IL-17A / human IL-17RA, sequence (Q16552 24-155): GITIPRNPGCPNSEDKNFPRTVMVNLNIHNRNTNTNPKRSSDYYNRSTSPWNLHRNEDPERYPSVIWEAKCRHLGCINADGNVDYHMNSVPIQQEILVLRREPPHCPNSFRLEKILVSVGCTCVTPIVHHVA

Turning to `CNC(=O)C1(N2CC(C(C)C)NC2=O)Cc2cc3nc([C@@H](NC(=O)c4nonc4C)C4CCCCC4)[nH]c3cc2C1` (stereo partly drawn) [Example 29, N-((1S)-cyclohexyl(6-(4-isopropyl-2-oxoimidazolidin-1-yl)-6-(methylcarbamoyl)-1,5,6,7-tetrahydroindeno[5,6-d]imidazol-2-yl)methyl)-4-methyl-1,2,5-oxadiazole-3-carboxamide], the IC50 in experiment [1] (HT-29, 48 h) turned out to be 146 nM; in experiment [2] it was 160 nM.
Take `CNC(=O)C1(N2C[C@@H](C(C)C)NC2=O)Cc2ccc(NC(=O)[C@@H](NC(=O)c3ccnn3C3CC3)C3CCCCC3)cc2C1` (stereo partly drawn) [Example 129, N-((1S)-1-cyclohexyl-2-((2-((R)-4-isopropyl-2-oxoimidazolidin-1-yl)-2-(methylcarbamoyl)-2,3-dihydro-1H-inden-5-yl)amino)-2-oxoethyl)-1-cyclopropyl-1H-pyrazole-5-carboxamide]: the IC50 in experiment [1] (HT-29, 48 h) came to 119 nM; in experiment [2], 44 nM.
On the same counts, the results for `CC1CN(Cc2cc3cc(NC(=O)[C@@H](NC(=O)c4ccnn4C)C4CCCCC4)ccc3[nH]2)C(=O)N1` (stereo partly drawn) [Example 12, N-((1S)-1-cyclohexyl-2-((2-((4-methyl-2-oxoimidazolidin-1-yl)methyl)-1H-indol-5-yl)amino)-2-oxoethyl)-1-methyl-1H-pyrazole-5-carboxamide] are above 10000 nM and 13000 nM.
For the compound `Cc1nonc1C(=O)N[C@H](C(=O)Nc1ccc2c(c1)CC(C(=O)Nc1ccccc1C(F)(F)F)(N1C[C@@H](C(C)C)NC1=O)C2)C(C1CC1)C1CC1` (stereo partly drawn) [Example 272, N-((2S)-1,1-dicyclopropyl-3-((2-((R)-4-isopropyl-2-oxoimidazolidin-1-yl)-2-((2-(trifluoromethyl)phenyl)carbamoyl)-2,3-dihydro-1H-inden-5-yl)amino)-3-oxopropan-2-yl)-4-methyl-1,2,5-oxadiazole-3-carboxamide], the IC50 in experiment [1] (HT-29, 48 h) is 650 nM; in experiment [2] it was 295 nM.
Take `CC(C)C1(N2CC3(CC3)CNC2=O)Cc2ccc(NC(=O)[C@@H](NC(=O)c3ccnn3C)C3CCCCC3)cc2C1` (stereo partly drawn) [Example 170, N-((1S)-1-cyclohexyl-2-((2-isopropyl-2-(6-oxo-5,7-diazaspiro[2.5]octan-5-yl)-2,3-dihydro-1H-inden-5-yl)amino)-2-oxoethyl)-1-methyl-1H-pyrazole-5-carboxamide]: the IC50 in experiment [1] (HT-29, 48 h) was 227 nM; in experiment [2], 169 nM.
As to `CNC(=O)C1(N2C[C@@H](C(C)C)NC2=O)Cc2ccc(NC(=O)C(NC(=O)c3ccnn3C)C3CCc4ccc(Cl)cc4C3)cc2C1` (stereo partly drawn) [Example 196, N-(1-(7-chloro-1,2,3,4-tetrahydronaphthalen-2-yl)-2-((2-((R)-4-isopropyl-2-oxoimidazolidin-1-yl)-2-(methylcarbamoyl)-2,3-dihydro-1H-inden-5-yl)amino)-2-oxoethyl)-1-methyl-1H-pyrazole-5-carboxamide], the IC50 in experiment [1] (HT-29, 48 h) was 58.5 nM; in experiment [2], 19.8 nM.
With `CNC(=O)C1(N2C[C@@H](C(C)C)NC2=O)Cc2ccc(NC(=O)C(NC(=O)c3ccnn3C)C3CCc4c(Cl)cccc4C3)cc2C1` (stereo partly drawn) [Example 201, N-(1-(5-chloro-1,2,3,4-tetrahydronaphthalen-2-yl)-2-((2-((R)-4-isopropyl-2-oxoimidazolidin-1-yl)-2-(methylcarbamoyl)-2,3-dihydro-1H-inden-5-yl)amino)-2-oxoethyl)-1-methyl-1H-pyrazole-5-carboxamide], the IC50 in experiment [1] (HT-29, 48 h) was 39.5 nM; in experiment [2], 6.5 nM.
The matching figures for `Cc1nonc1C(=O)N[C@H](C(=O)Nc1ccc2c(c1)CC(Cc1ccc(F)cc1)(N1C[C@@H](C(C)C)NC1=O)C2)C(C1CC1)C1CC1` (stereo partly drawn) [Example 241, N-((2S)-1,1-dicyclopropyl-3-((2-(4-fluorobenzyl)-2-((R)-4-isopropyl-2-oxoimidazolidin-1-yl)-2,3-dihydro-1H-inden-5-yl)amino)-3-oxopropan-2-yl)-4-methyl-1,2,5-oxadiazole-3-carboxamide]: 5800 nM and 2920 nM.
On the same counts, the results for `CNC(=O)C1(N2CC(Cc3ccccc3)CNC2=O)Cc2ccc(NC(=O)[C@@H](NC(=O)c3ccnn3C)C3CCCCC3)cc2C1` (stereo partly drawn) [Example 99, N-((1S)-2-((2-(5-benzyl-2-oxotetrahydropyrimidin-1(2H)-yl)-2-(methylcarbamoyl)-2,3-dihydro-1H-inden-5-yl)amino)-1-cyclohexyl-2-oxoethyl)-1-methyl-1H-pyrazole-5-carboxamide] are 2480 nM and 278 nM.
`CNC(=O)C1(N2C[C@@H](C(C)C)NC2=O)Cc2ccc(NC(=O)[C@@H](NC(=O)c3cccc(C)c3)C3CCCCC3)cc2C1` (stereo partly drawn) [Example 71, 5-((S)-2-cyclohexyl-2-(3-methylbenzamido)acetamido)-2-((R)-4-isopropyl-2-oxoimidazolidin-1-yl)-N-methyl-2,3-dihydro-1H-indene-2-carboxamide]: the IC50 in experiment [1] (HT-29, 48 h) worked out at 217 nM; in experiment [2] it was 21 nM.
With `Cc1nonc1C(=O)N[C@H](C(=O)Nc1ccc2c(c1)CC(C(=O)NC1CC1(F)F)(N1C[C@@H](C(C)C)NC1=O)C2)C(C1CC1)C1CC1` (stereo partly drawn) [Example 273, N-((2S)-1,1-dicyclopropyl-3-((2-((2,2-difluorocyclopropyl)carbamoyl)-2-((R)-4-isopropyl-2-oxoimidazolidin-1-yl)-2,3-dihydro-1H-inden-5-yl)amino)-3-oxopropan-2-yl)-4-methyl-1,2,5-oxadiazole-3-carboxamide], the IC50 in experiment [1] (HT-29, 48 h) came out at 66.1 nM; in experiment [2] it was 34.7 nM.
For the compound `CNC(=O)C1(N2C[C@@H](C(C)C)NC2=O)Cc2ccc(NC(=O)[C@@H](NC(=O)Oc3ccccc3)C3CCCCC3)cc2C1` (stereo partly drawn) [Example 51, phenyl ((1S)-1-cyclohexyl-2-((2-((R)-4-isopropyl-2-oxoimidazolidin-1-yl)-2-(methylcarbamoyl)-2,3-dihydro-1H-inden-5-yl)amino)-2-oxoethyl)carbamate], the IC50 in experiment [1] (48 hours) amounted to 2050 nM; in experiment [2], 686 nM.
With `CNC(=O)C1(N2C[C@@H](C(C)C)NC2=O)Cc2ccc(NC(=O)C(NC(=O)c3ccnn3C)C3CCc4cc(Cl)ccc4C3)cc2C1` (stereo partly drawn) [Example 186, N-(1-(6-chloro-1,2,3,4-tetrahydronaphthalen-2-yl)-2-((2-((R)-4-isopropyl-2-oxoimidazolidin-1-yl)-2-(methylcarbamoyl)-2,3-dihydro-1H-inden-5-yl)amino)-2-oxoethyl)-1-methyl-1H-pyrazole-5-carboxamide], the IC50 stood at 15.1 nM in experiment [1] (HT-29, 48 h) and 6.3 nM in experiment [2].
The matching figures for `CNC(=O)C1(N2C(=O)NC3CCC2C3)Cc2ccc(NC(=O)[C@@H](NC(=O)c3ccnn3C)C3CCCCC3)cc2C1` (stereo partly drawn) [Example 144, N-((1S)-1-cyclohexyl-2-((2-(methylcarbamoyl)-2-(3-oxo-2,4-diazabicyclo[3.2.1]octan-2-yl)-2,3-dihydro-1H-inden-5-yl)amino)-2-oxoethyl)-1-methyl-1H-pyrazole-5-carboxamide]: 182 nM and 48.6 nM.
For `COCC1(N2CC3(CC3)CNC2=O)Cc2ccc(NC(=O)[C@@H](NC(=O)c3ccnn3C)C3CCCCC3)cc2C1` (stereo partly drawn) [Example 156, N-((1S)-1-cyclohexyl-2-((2-(methoxymethyl)-2-(6-oxo-5,7-diazaspiro[2.5]octan-5-yl)-2,3-dihydro-1H-inden-5-yl)amino)-2-oxoethyl)-1-methyl-1H-pyrazole-5-carboxamide], the IC50 in experiment [1] (HT-29, 48 h) is 305 nM; in experiment [2] it was 68.3 nM.
For the compound `Cc1nonc1C(=O)N[C@H](C(=O)Nc1ccc2c(c1)CC(C(=O)NC1CCC(F)(F)CC1)(N1CC3(CC3)CNC1=O)C2)C1CCC(F)(F)CC1` (stereo partly drawn) [Example 191, N-((1S)-1-(4,4-difluorocyclohexyl)-2-((2-((4,4-difluorocyclohexyl)carbamoyl)-2-(6-oxo-5,7-diazaspiro[2.5]octan-5-yl)-2,3-dihydro-1H-inden-5-yl)amino)-2-oxoethyl)-4-methyl-1,2,5-oxadiazole-3-carboxamide], the IC50 in experiment [1] (HT-29, 48 h) is 168 nM; in experiment [2], 76.9 nM.
Turning to `CC(C)CNC(=O)C1(N2C[C@@H](C(C)C)NC2=O)Cc2ccc(NC(=O)[C@@H](NC(=O)c3ccnn3C)C3CCCCC3)cc2C1` (stereo partly drawn) [Example 124, N-((1S)-1-cyclohexyl-2-((2-(isobutylcarbamoyl)-2-((R)-4-isopropyl-2-oxoimidazolidin-1-yl)-2,3-dihydro-1H-inden-5-yl)amino)-2-oxoethyl)-1-methyl-1H-pyrazole-5-carboxamide], the IC50 turned out to be 32.5 nM in experiment [1] (HT-29, 48 h) and 19 nM in experiment [2].
Turning to `Cc1nonc1C(=O)N[C@H](C(=O)Nc1ccc2c(c1)CC(C(=O)Nc1cc(F)ccc1Cl)(N1C[C@@H](C(C)C)NC1=O)C2)C(C1CC1)C1CC1` (stereo partly drawn) [Example 278, N-((2S)-1-((2-((2-chloro-5-fluorophenyl)carbamoyl)-2-((R)-4-isopropyl-2-oxoimidazolidin-1-yl)-2,3-dihydro-1H-inden-5-yl)amino)-3,3-dicyclopropyl-1-oxopropan-2-yl)-4-methyl-1,2,5-oxadiazole-3-carboxamide], the IC50 in experiment [1] (HT-29, 48 h) was 122 nM; in experiment [2], 333 nM.
For the compound `CNC(=O)C1(N2C[C@@H](C(C)C)NC2=O)Cc2ccc(NC(=O)C(NC(=O)c3ccnn3C)C3CCC(C)(C)CC3)cc2C1` (stereo partly drawn) [Example 87, N-(1-(4,4-dimethylcyclohexyl)-2-((2-((R)-4-isopropyl-2-oxoimidazolidin-1-yl)-2-(methylcarbamoyl)-2,3-dihydro-1H-inden-5-yl)amino)-2-oxoethyl)-1-methyl-1H-pyrazole-5-carboxamide], the IC50 in experiment [1] (HT-29, 48 h) was 352 nM; in experiment [2], 36 nM.
